We go through two substances from PMC5136666, “Epobis is a Nonerythropoietic and Neuroprotective Agonist of the Erythropoietin Receptor with Anti-Inflammatory and Memory Enhancing Effects” (Mediators of Inflammation, 2016).

One series has as its target EPO receptor. The settings on record: surface plasmon resonance; read-out: apparent KD; cited from earlier work. An excerpt: We have previously designed two synthetic, dendrimeric peptides with sequences corresponding to the first and the second EPO receptor binding site of human EPO, respectively. The peptide derived from binding site 2 was named Epotris and has previously been reported to promote neuritogenesis and neuronal survival in vitro and in vivo in a nonerythropoietic manner and to attenuate status epilepticus. The peptide derived from binding site 1 (residues 36–53 in the structural model of the EPO:EPO receptor-complex; PDB: 1EER [27]) was named Epobis, and surface plasmon resonance analy ...
A general note: SPR reads the build-up and loss of mass on a sensor chip optically.

The subject of a further series is EAE in Lewis rats. As to the kind of experiment: Experimental autoimmune encephalomyelitis (EAE). In kind it is in vivo. How it is done:
Experimental autoimmune encephalomyelitis (EAE) was induced as described previously. Briefly, female Lewis rats (200 g) received subcutaneous injections at both sides of the base of the tail with 0.2 mL of an emulsion containing 1 g/L Guinea pig myelin basic protein and 1 g/L M. tuberculosis in Freund's complete adjuvant (all from Sigma-Aldrich). The injections were performed under full inhalation anesthesia. EAE was induced in 30 animals; 6 healthy, age-matched, unimmunized rats were used as controls. Between day 0 and day 21, the weight and clinical signs of EAE were recorded daily for all animals. Clinical signs were scored as follows: 0, no abnormality; 0.5, weak tail; 1, limp tail; 2, mild palsy of one or both hind legs; 3, severe palsy of one or both hind legs; 4, complete paralysis of one or both hind legs; 5, paralysis of one or both hind legs and beginning paralysis of front legs; 6, moribund. Animals with a clinical score ≥4 were sacrificed immediately.
Starting at day 10 after induction of EAE, animals were treated once/day for 5 consecutive days with Epobis (10 mg/kg, 1 mL/kg, s.c.) or PBS (1.0 mL/kg, s.c.). The control group is identical to the control group of previously published data performed simultaneously with the Epobis study.

Series [1] concerns TNF secretion from AMJ2-C8 macrophages. As to the kind of experiment: Macrophage activation assay (TNF secretion estimated from L-cell viability). The format is cell-based, mouse. As to conditions: untreated ~48%, MTS, 4 experiments. How it is done: The macrophage activation assay is used to estimate tumor necrosis factor (TNF) secretion from the macrophage cell line AMJ2-C8 (ATCC; Boras, Sweden). Fibroblastoid mouse L929 cells (L-cells; ECCC, Salisbury, UK) are sensitive to TNF upon exposure to actinomycin D, and L-cell survival can therefore be utilized as an indirect estimate of TNF concentrations. The assay was performed essentially as described previously. Briefly, AMJ2-C8 cells were plated in 6-well MultiDish plates (Nunc, Denmark) and treated with 100 μM hydrocortisone (Sigma-Aldrich, Brøndby, Denmark), […] (8.4 nM) rhEPO (Calbiochem, Merck Millipore, Denmark), or Epobis (0.9–8.1 μM) for 24 h. They were then exposed to 10 ng/mL interferon-γ (IFN-γ) (R&D Systems, UK) for 24 h to induce the production of TNF [34].
L-cells were seeded in 96-well Multiwell plates (2 × 10^5 cells/mL, 100 μL/well; Nunc) and grown for 24 h. Then conditioned medium from stimulated macrophages was collected and added to the L-cells together with actinomycin D (Sigma, Sigma-Aldrich). L-cell viability was assayed 24 h later by the MTS assay (Promega, Madison, WI, USA) according to the manufacture's protocol. Cell viability was calculated as follows: (1) cell viability %=ODexperiment/ODcontrol×100. […]

Series [2] in a line: Detection of Epobis in plasma and cerebrospinal fluid. The format is in vivo, Wistar rats. The settings on record: rat. How it is done: Detection of biotinylated Epobis in plasma was performed essentially as described previously. Briefly, 10 mg/kg Epobis was injected subcutaneously (s.c.) in anaesthetized 200 g Wistar rats, and blood samples were collected from the orbital plexus at selected time points. Cerebrospinal fluid (CSF) was sampled from the cisterna magna as described previously.
Subsequently the concentrations of peptide in serum plasma and CSF were estimated using a competitive enzyme-linked immunosorbent assay, where all samples were run in duplicate.

Series [3] relates to TNF secretion from rat primary microglia. Put plainly: LPS-induced TNF release from rat primary microglia (ELISA). In kind it is cell-based. The settings on record: 0.9 μM, 1 h pretreatment, LPS 100 ng/mL 24 h, p < 0.05, 3 experiments. On the procedure: Mixed glial cultures were prepared from 1-day-old to 2-day-old Wistar rat pups as described previously. Briefly, cortices were dissected, roughly chopped, and incubated in prewarmed 0.5% trypsin for 10 min. Then Dulbecco's modified Eagle's medium (DMEM) plus GlutaMAX (culture media; Gibco) containing 10% fetal calf serum, penicillin (100 U/mL), and streptomycin (100 U/mL) was added and tissue was triturated. The suspension was centrifuged at 500 ×g for 10 min, and the resulting pellet was resuspended in culture media and plated in a poly-L-lysine-coated T180 flask. The mixed glial culture was grown for 2-3 weeks at 37°C in a humidified 5% CO2 : 95% air environment. The medium was changed first at day 2 after culture preparation and then every 5-6 days. […] Images were recorded using a Zeiss Axiovert 100 microscope mounted with an AxioCam MRm camera using the accompanying ZEN 2012 software.
To induce TNF secretion, microglia cells were treated with lipopolysaccharide (LPS; 100 ng/mL; Sigma) following 1 h pretreatment in the absence or presence of Epobis. Conditioned media were collected 24 h later and released TNF was determined using a rat TNF Ready-SET-Go!® ELISA kit according to the manufacturer's instructions (eBioscience, San Diego, USA).
A general note: In an ELISA, binding on a coated surface is turned into a signal by an enzyme label.

The subject of another series is primary rat motoneurons. As to the kind of experiment: Neurite outgrowth from primary motoneurons. The settings on record: 24 h, bell-shaped concentration dependence, p < 0.0001, 3 independent experiments. In kind it is cell-based. On the procedure:
Primary rat motoneurons were isolated as described previously. Briefly, the ventral horns of the lumbar spinal cord were dissected from Wistar rat embryos (E15). The dissociated motoneurons were plated at a density of 7,000 cells per well on laminin-coated (5 μg/mL; Sigma-Aldrich) 8-well LabTek Permanox slides (NUNC, Denmark). Neurons were stimulated with serially diluted Epobis peptide for 24 h, fixed with 4% formalin, stained with polyclonal rabbit anti-rat growth-associated protein-43 antibodies (1 : 1000; Millipore), and analyzed by computer-assisted fluorescence microscopy as described.

The subject of series [4] is hematocrit and hemoglobin levels in mice. As to the kind of experiment: Hematopoiesis assay. The format is in vivo. As to conditions: 10 mg/kg s.c. twice per week for 5 weeks, female C57BL/6J mice. How it is done:
Estimates of hematopoietic activity of Epobis in female C57BL/6J mice were performed essentially as described previously. Briefly, Epobis (10 mg/kg), EPO (10 mg/kg; Calbiochem), or vehicle (PBS) was injected subcutaneously twice per week for 5 weeks. Blood samples were collected from the orbital plexus once per week, and hemoglobin levels and hematocrit values were determined as described.

Series [5] deals with short-term/working memory of adult rats. As to the kind of experiment: Social recognition test. As to conditions: 10 mg/kg single s.c., healthy adult rats. In kind it is in vivo, rat. How it is done:
The social recognition assay evaluates short-term/working memory of adult rats, a type of memory known to be impaired in old (>18 month) rats and in rats experiencing early stage AD [38]. Social recognition in rats was evaluated essentially as described previously. First, a habituation session was carried out; 24 h later, Epobis (10 mg/kg, 1 mL/kg, s.c.) or PBS (1.0 mL/kg, s.c.) was administered, and 1 h later the test animals were introduced to a new, juvenile male rat for 4 min (initial trial). After another 2.5 h the same juvenile rat was reintroduced, or as a control, an unfamiliar juvenile rat was introduced (test trial). To test long-term effects of the peptide, another social recognition test was performed with the initial trial taking place 73 h after administration of test compounds. Data are expressed as a recognition ratio: RR = T2/(T2 + T1), where T1 and T2 are the times spent on investigating the juvenile animal during the initial and the test trial, respectively.

Setting [6] is: 10 mg/kg s.c. once/day for 5 days from day 10, Lewis rats.
Where [7] appears, read: biotinylated Epobis, 10 mg/kg single s.c., competitive ELISA, n = 6.

Positions of bridges follow the written chain, without caps; N, C: chain ends. Chains are numbered I, II in the order given. No end group written: not given here.

Consider “I: NENITVPDTKVNFYAWKRKK-NH2 / II: NENITVPDTKVNFYAWKRK / III: NENITVPDTKVNFYAWKR / IV: NENITVPDTKVNFYAWKR (amide I:19-IV:C, I:20-II:C, II:19-III:C; C-terminus assumed) [Epobis]”, for which the Kd at EPO receptor is around 60 nM. In the series with EAE in Lewis rats (setting [6]), the “effect on survival of EAE animals versus vehicle” value was “no significant effects” and the “effect on weight changes of EAE animals versus vehicle” value is recorded as “no significant effects”. In the series on EAE in Lewis rats (10 mg/kg s.c. once/day for 5 days from day 10, immunohistochemistry), the “activated microglia in the brain stem of EAE animals, Epobis versus vehicle” value is “no difference”. Besides, the “clinical signs of EAE versus vehicle, later time points” value in the series with EAE in Lewis rats (10 mg/kg s.c. once/day for 5 days from day 10, n = 10) is on record as “not significantly different”. Also, in the series on EAE in Lewis rats (10 mg/kg s.c. once/day for 5 days from day 10, n = 10, p < 0.05), the “clinical signs of EAE versus vehicle, day 2 after onset” value is on record as “significantly lower”. The “L-cell viability relative to control (highest)” value in series [1] (conditioned medium from IFN-γ-activated AMJ2-C8 macrophages pretreated 24 h with 2.7 μM Epobis, p < 0.05) is listed as ~ 68%. Besides, in series [2] (2 h after single s.c. 10 mg/kg), the “plasma : CSF ratio” value is “approximately 20”. In addition, in series [2] (setting [7]), the “time of peak plasma concentration” value is listed as “around 2 h” and the “time the peptide remained detectable in blood” value is given as “at least 24 h”. In series [3], the “LPS-induced TNF secretion from microglia” value is “significant decrease”. Also, the “concentration of maximal stimulation of neurite outgrowth” value in the series on primary rat motoneurons was 0.33 µM. Further, in series [4], the effect on hematocrit entry is listed as “did not cause any statistically significant increases” and the “effect on hemoglobin levels” value was “did not cause any statistically significant increases”. Moreover, the “recognition ratio (RR) versus vehicle, test 73 h after administration” value in series [5] (n = 12, t-test p < 0.018, different from 0.5 p < 0.0001) is “significantly lower”. Moreover, the “recognition ratio (RR) versus vehicle, test 1 h after administration” value in series [5] (n = 12, t-test p > 0.05) is recorded as “no significant difference”.

For erythropoietin [EPO], the “L-cell viability relative to control” value in series [1] (conditioned medium from IFN-γ-activated AMJ2-C8 macrophages pretreated 24 h with 8.4 nM EPO) was ~ 64%. Further, in series [4], the effect on hematocrit entry is on record as “statistically significant increases” and the “effect on hemoglobin levels” value was “statistically significant increases”.
